Counter-ions that a name gives are not always drawn. Marks after values point to notes of the source that are not given here.
What was measured:
[1] = tested on: cough induced by ammonia water in mice; experiment: Antitussive test, cough induced by ammonia water in mice; assay type: in vivo, ICR mice
Description: • Animals: male ICR mice; • Drugs and reagents: dextromethorphan hydrobromide, ammonia water, 0.2% CMC-Na, protein BD-3; • Apparatus: Compressed nebulizer (403T type), balance (XS105DU type). • Experiment grouping: • Solvent control group; • Dextromethorphan 15 mg/kg group; • Protein BD-3, 20 mg/kg group, 50 mg/kg group.
Dextromethorphan and different doses of protein BD-3 (administration volume 10 ml/kg) were given orally in groups, and the solvent control group was given the same volume of distilled water. One hour later, mice were put into a sealed box and atomized 10% ammonia water for 10 seconds, and then observed and recorded the incubation period of cough in mice and the number of coughs in 2 minutes.
Record the time point of oral administration, the time point of atomization experiment, the incubation period of mice cough and the number of coughs within 2 minutes, respectively. The incubation period of cough refers to the number of seconds from the start of the atomization of ammonia to the occurrence of cough. The performance of coughing in mice is based on contraction of their abdominal muscles (breast contraction) and opening their mouths at the same time. Calculate the mean and standard error of each group of data, and use TTEST to compare the model group with other groups, and P<0.05 is considered as a significant difference.

[2] = tested on: PLO-induced epilepsy in mice; experiment: Pilocarpine (PLO) induced convulsive epilepsy in mice; assay type: in vivo, ICR mice; conditions: Diazepam 2 mg/kg
Description: • Animals: male ICR mice; • Drugs: Pilocarpine HCl (PLO, pilocarpine, pilocarpine hydrochloride), Diazepam (diazepam tablets), protein BD-3. • Experiment grouping: • Model group: • Diazepam 2 mg/kg group; • Protein BD-3, 50 mg/kg group, 200 mg/kg group.
The drug was administered once in the afternoon the day before modeling, PLO-225 mg/kg (modeling agent) was injected intraperitoneally 1 hour after the test drug was administered intragastrically on the day of modeling. And positive drug can be administered once 20 minutes before modeling. Observe for 30 minutes after PLO injection.
Observation indicators: (1)Seizure situation: the time of seizures from Grade II to Grade IV; (2)the time to death.
(§1) Seizure grade: Refer to Racine grading standard: Grade 0: No response; Grade I: manifested as twitching of facial muscles or the corners of the mouth; Grade II: can nod; Grade III: twitching of one limb; Grade IV: rigidity or body twitching; Grade V: generalized epilepsy (generalized tonic seizures).
Count the number of Grade IV seizures and deaths in each group of mice in the experiment; Grade II, III and IV incubation period. […] Chi-square test was used for statistics of the number of cases. The mean value and standard error of the incubation period were calculated, and TTEST was used to compare the model group with other groups. P<0.05 was considered as a significant difference.

[3] = tested on: PTZ-induced epilepsy in mice; experiment: Pentylenetetrazole (PTZ)-induced epilepsy in mice; assay type: in vivo, ICR mice; conditions: Retigabine 60 mg/kg
Description: • Animals: male ICR mice; • Medicines: Pentylenetetrazol (PTZ), Retigabine, Protein BD-3. • Experiment grouping: • Model group; • Retigabine 60 mg/kg group; • Protein BD-3, 50 mg/kg group, 200 mg/kg group;
The drug was administered once in the afternoon the day before modeling, On the day of modeling, PTZ-65 mg/kg (modeling agent) was injected intraperitoneal 1 hour after the test drug was administered intragastrically, and the positive drug can be administered once half an hour before modeling. Continue to observe for 15 minutes after injection of PTZ.
Observation index: (1)Seizure situation: the time of seizures from Grade III to Grade VI; (2)Death situation
as §1
Count the cases of seizures and deaths in each group of mice in the experiment; Grade III and IV incubation period. The incubation period of mice that have not attacked to Grade IV is recorded as the maximum of 900 seconds. Chi-square test was used for statistics of the number of cases. Calculate the mean and standard error of the incubation period. Use TTEST to compare the model group with other groups, and P<0.05 is considered as a significant difference.

[4] = tested on: yeast-induced fever model in SD rats; experiment: Yeast-induced fever model of SD rats; assay type: in vivo
Description: (§2) • Animals: 230-260 grams of male SD rats; • Medicines: yeast (OXOID LP0021), aspirin (SIGMA A2093), protein BD-3; • Instruments: electronic balance (SARTORIUS BP121S type), electronic clinical thermometer (CITIZEN CT-513W type). • Experiment grouping: • Normal control group; • Model group: yeast fever model; • Positive control group: Aspirin 300 mg/kg group; • Protein BD-3, 10 mg/kg group, 50 mg/kg group. • Method:
(§3) Preparation of experimental animals: After the experimental animals adapt to the experimental environment (temperature 22° C.±2° C., relative humidity 50%±2%) for 1 day. Pre-adaptation to measure rectal temperature at 8:00 and 15:00, rats were fasted and water was taken freely 12 h before experiment, and let the animal to empty its feces before measuring the rectal temperature. Apply petroleum jelly to the electronic thermometer probe before each temperature measurement. Insert the rat rectum 2 cm (can be marked at 2 cm to ensure that the depth of each insertion is consistent), and record the body temperature after the reading is stable.
(§4) Subcutaneous injection of dry yeast to replicate rat fever model: The body temperature of the rats was measured before modeling. Qualified rats with a body temperature of 36.2-37.3° C. were selected and randomly divided into groups with 8 rats in each group. After oral administration of aspirin and different doses of protein BD-3, 20% yeast suspension (10 ml/kg) was injected subcutaneously immediately, and the normal control group was injected intraperitoneally with an equal volume of normal saline. The body temperatures of the rats were monitored after 2 hours for a total of 8 hours.
(§5) According to the body temperature measured at each time point on the day of the experiment, calculate the mean, standard deviation and standard error of the body temperature of each group of rats. The data of each group was compared with TTEST, and P<0.05 was considered as a significant difference.

[5] = tested on: lipopolysaccharide (LPS) induced fever model in SD rats; experiment: Lipopolysaccharide (LPS) induced fever in SD rats; assay type: in vivo
Description: as §2, with “Drugs: lipopolysaccharide (LPS, SIGMA L-2880),” for “Medicines: yeast (OXOID LP0021),”, “BD-3;” for “BD-3; •”, “lipopolysaccharide” for “yeast”, “Method: the method of intraperitoneal injection of Lipopolysaccharide to replicate rat fever model.” for “Method:”
as §3
as §4, with “Intraperitoneal” for “Subcutaneous”, “lipopolysaccharide” for “dry yeast”, “lipopolysaccharide (20 μg/kg, 2” for “20% yeast suspension (10”, “intraperitoneally” for “subcutaneously”
as §5

[6] = tested on: acetic acid writhing in ICR mice; experiment: Acetic acid writhing in ICR mice; assay type: in vivo
Description: • Animals: male ICR mice; • Drugs and reagents: aspirin, physiological saline, glacial acetic acid, protein BD-3. • Experiment grouping: • Model group; • Aspirin 300 mg/kg group; • Protein BD-3, 50 mg/kg group, 200 mg/kg group.
One day after the experimental animals adapt to the environment, Aspirin 300 mg/kg, protein BD-3 50 mg/kg, 200 mg/kg were given orally one hour in advance, and the administration volume was 10 ml/kg; Then, 0.6% acetic acid solution was injected intraperitoneally, and the incubation period (seconds) and frequency of writhing in the animal was observed within 15 minutes.
Calculate the mean and standard error of the data in each group. Compared with the model group by TTEST, P<0.05 was considered as statistically different.

[7] = aspirin 300 mg/kg oral, 20% yeast s.c., model group 37.7 ± 0.1
[8] = aspirin 300 mg/kg oral, LPS 20 μg/kg i.p., model group 37.8 ± 0.2

COc1ccc2c(c1)[C@]13CCCC[C@@H]1[C@H](C2)N(C)CC3 [Dextromethorphan, dextromethorphan hydrobromide, reference compound]
Incubation period (cough) ([1]; Dextromethorphan 15 mg/kg oral, X ± SEM, solvent control 26.9 ± 2.3): 38.4 ± 4.5 s
Number of coughs ([1]; Dextromethorphan 15 mg/kg oral, within 2 minutes, X ± SEM, solvent control 67.1 ± 5.7): 34.0 ± 2.9
Cough incubation period and number of coughs vs solvent control (in words) ([1]; dextromethorphan 15 mg/kg, P<0.05): significant improvement in the incubation period and the number of coughs

CN1C(=O)CN=C(c2ccccc2)c2cc(Cl)ccc21 [Diazepam, reference compound]
mortality rate ([2]; PLO 225 mg/kg i.p., model group 0): 0
Grade IV seizure rate ([2]; PLO 225 mg/kg i.p., model group 80%): 0** %
Grade IV seizure incubation period ([2]; mean ± SEM, maximum recorded 1800 seconds, model group 894 ± 164): 1800 ± 0 s
Grade II seizure incubation period ([2]; mean ± SEM, model group 86 ± 5): 109 ± 8 s
Grade III seizure incubation period ([2]; mean ± SEM, model group 142 ± 6): 182 ± 14 s
Cases of Grade IV ([2]; of 10 mice, PLO 225 mg/kg i.p., 30 min observation, model group 8): 0**
Cases of deaths ([2]; of 10 mice, PLO 225 mg/kg i.p., model group 0): 0

CCOC(=O)Nc1ccc(NCc2ccc(F)cc2)cc1N [Retigabine, reference compound]
mortality rate ([3]; PTZ 65 mg/kg i.p., model group 10%): 0%
Grade IV seizure rate ([3]; PTZ 65 mg/kg i.p., model group 90%): 20%**
Grade IV seizure incubation period ([3]; mean ± SEM, maximum recorded 900 seconds, model group 185 ± 84): 745 ± 103 s
Grade III seizure incubation period ([3]; mean ± SEM, model group 63 ± 6): 83 ± 7 s
Cases of Grade IV ([3]; of 10 mice, PTZ 65 mg/kg i.p., 15 min observation, model group 9): 2**
Cases of deaths ([3]; of 10 mice, PTZ 65 mg/kg i.p., model group 1): 0

CC(=O)Oc1ccccc1C(=O)O [aspirin, reference compound]
Body temperature 2 hours after modeling ([4]; aspirin 300 mg/kg oral, 20% yeast s.c., model group 37.5 ± 0.1): 37.0 ± 0.1 °C
Body temperature 8 hours after modeling ([4]; aspirin 300 mg/kg oral, 20% yeast s.c., model group 37.6 ± 0.1): 37.0 ± 0.1 °C
Body temperature 4 hours after modeling [4, 7]: 37.0 ± 0.1 °C
Body temperature 6 hours after modeling [4, 7]: 37.0 ± 0.1 °C
Effect on body temperature of model rats (in words) ([4]; aspirin 300 mg/kg, at 4 hours, 6 hours, and 8 hours after modeling, P<0.05 vs model group): can effectively inhibit the increase in body temperature of model rats
Body temperature 2 hours after modeling ([5]; aspirin 300 mg/kg oral, LPS 20 μg/kg i.p., model group 37.6 ± 0.1): 36.8 ± 0.1 °C
Body temperature 4 hours after modeling ([5]; aspirin 300 mg/kg oral, LPS 20 μg/kg i.p., model group 37.8 ± 0.1): 36.9 ± 0.2 °C
Body temperature 6 hours after modeling [5, 8]: 36.8 ± 0.2 °C
Body temperature 8 hours after modeling [5, 8]: 36.9 ± 0.1 °C
Effect on body temperature of model rats (in words) ([5]; aspirin 300 mg/kg, at 2, 4, 6 and 8 hours after modeling, P<0.05 vs model group): can effectively inhibit the increase in body temperature of model rats
Writhing incubation period and times of writhing vs model group (in words) ([6]; Aspirin 300 mg/kg, P<0.05): can significantly delay the incubation period of writhing and reduce the times of writhing
Writhing incubation period ([6]; aspirin 300 mg/kg oral, 0.6% acetic acid i.p., model group 204.2 ± 19.6): 290.3 ± 37.0 s
Frequency of writhing ([6]; aspirin 300 mg/kg oral, within 15 minutes, model group 33.3 ± 2.5): 15.2 ± 2.9 times
